# Laboratory results reported in patent US20250002450A1, “CATIONIC STEROID COMPOUNDS, METHOD OF OBTAINING THEREOF, FORMULATIONS COMPRISING THEREOF AND THEIR USES” (UNIVERSIDADE DO PORTO, priority 2021, published 2025).
# Legend:
# [1] = test system: Saprolegnia parasitica CBS 223.65; assay: MIC/MLC broth microdilution in GY broth; assay type: cell-based
# Procedure: The antifungal activity of compound 1 was evaluated for a wide range of fungal species, covering yeasts and filamentous fungi, including dermatophytes. […] This antimicrobial effect was fungicidal, with minimal lethal concentrations (MLC) being equal to, or one or two-fold higher than the respective MIC. Twenty-three fungal strains were used in this study, including reference strains and clinical isolates of yeasts and filamentous fungi. Yeast strains included reference strains (ATCC—American Type Culture Collection and CECT—Colección Española de Cultivos Tipo) and clinical isolates: C. albicans ATCC 10231, Candida krusei ATCC 6258, C. albicans H37, C. albicans FF172, C. albicans FF176, C. albicans DSY294, C. albicans DSY296, C. glabrata DSY562, C. glabrata DSY565 and Cryptococcus neoformans CECT 1078. […]
# Each well was then inoculated with approximately 1 mm^2 of mycelium. […] After 5-7 days of incubation at 24° C., MIC was recorded as the lowest concentration that prevented obvious mycelial growth in comparison to the compound-free controls. […]
# [2] = test system: P. aeruginosa ATCC 27853; assay: Bacterial biofilm formation inhibition (crystal violet); assay type: cell-based, Pseudomonas aeruginosa; settings: 2×MIC and MIC, 24 h
# Procedure: In an embodiment, the antibiofilm activity of compound 1 was performed as follows. Given its bactericidal effect, the impact of compound 1 on the biofilm formation of reference strains was studied.
# The effect of compound 1 on bacterial biofilm formation was evaluated through quantification of total biomass, using the crystal violet method, as previously described ([FIG. 6]). […] A control with an appropriate concentration of DMSO, as well as a negative control (TSB alone) was included. Sterile 96-well flat-bottomed untreated polystyrene microtiter plates were used. After a 24 h incubation at 37 degrees C., the biofilms were heat-fixed for 1 h at 60 degrees C. and stained with 0.5% (v/v) crystal violet (Quimica Clinica Aplicada, Amposta, Spain) for 5 min. The stain was resolubilized with 33% (v/v) acetic acid (Acetic acid 100%, AppliChem, Darmstadt, Germany) and the biofilm biomass was quantified by measuring the absorbance of each sample at 570 nm in a microplate reader (Thermo Scientific Multiskan® EX, Thermo Fisher Scientific, Waltham, MA, USA). The background absorbance (TSB or TSB+1% glucose without inoculum) was subtracted from the absorbance of each sample and the data are presented as a percentage of control. Three independent assays were performed for reference strains, with triplicates for each experimental condition.
# [3] = test system: E. coli SA/2; assay: Checkerboard synergy with CTX; assay type: cell-based
# Procedure: The combined effect of compound 1 and CTX for E. coli SA/2, VAN for E. faecalis B3/101, COL for E. coli 2252, erythromycin for E. coli ATCC 25922, and OXA for S. aureus 66/1 was evaluated by the checkerboard method. […] The interaction between compound 1 and erythromycin was assessed for E. coli ATCC 25922. Gram-negative bacteria are intrinsically resistant to erythromycin, a macrolide that inhibits protein synthesis, and cannot penetrate the outer membrane of Gram-negative bacteria, which is impermeable to hydrophobic antibiotics. Ascertain ceragenins have been previously described to be able to enhance the efficacy of such antibiotics, this possibility was investigated for compound 1 and a FICI of 0.6 was obtained.
# [4] = test system: E. faecalis B3/101 (VRE); assay: Kirby-Bauer disk diffusion; assay type: cell-based, Enterococcus faecalis; settings: 15 μg per disk
# Procedure: (§1) An initial screening of the antibacterial activity of the compounds was performed by the Kirby-Bauer disk diffusion method, as recommended by the Clinical and Laboratory Standards Institute (CLSI). Briefly, sterile 6 mm blank paper disks (Oxoid, Basingstoke, England) impregnated with 15 μg of each compound were placed on inoculated MH agar plates. A blank disk with dimethylsulfoxide (DMSO) was used as a negative control. MH inoculated plates were incubated for 18-20 h at 37 degrees C. At the end of incubation, the inhibition halos where measured. The MIC was used to determine the antibacterial activity of each compound, in accordance with the recommendations of the CLSI. Two-fold serial dilutions of the compounds were prepared in Mueller-Hinton Broth 2 (MHB2—Sigma-Aldrich, St. Louis, MO, USA) within the concentration range of 0.062-64 μg/mL. CTX ranging between 0.031-16 μg/mL was used as a control. Sterility and growth controls were included in each assay. Purity checks and colony counts of the inoculum suspensions were also performed in order to ensure that the final inoculum density closely approximates the intended number (5×10^5 CFU/mL). The MIC was determined as the lowest concentration of compound that inhibited growth of the bacteria. The MBC was assessed by spreading 10 μL of culture collected from wells showing no visible growth on MH agar plates. […]
# [5] = test system: Enterococcuss faecalis ATCC 29212; assay: Kirby-Bauer disk diffusion; assay type: cell-based, Enterococcus faecalis; settings: 15 μg per disk
# Procedure: as §1
smiles,measurement,setting,value
"C[C@H](CCC(=O)NCCN)[C@H]1CC[C@H]2[C@@H]3CC[C@@H]4C[C@H](O)CC[C@]4(C)[C@H]3C[C@H](O)[C@]12C [Compound 1, (R)—N-(2-aminoethyl)-4-((3R,5R,8R,9S,10S,12S,13R,14S,17R)-3,12-dihydroxy-10,13-dimethylhexadecahydro-1H-cyclopenta[a]phenanthren-17-yl) pentanamida]",MIC,[1],32 to 64 µg/mL
same,MLC,[1],32 to 64 µg/mL
same,biofilm formation (in words),[2],significantly inhibited
same,combined effect with CTX (in words),[3],No synergistic interactions
same,Disk diffusion,[4],11 mm
same,Disk diffusion,[5],13 mm
